Source: US20140105871A1, “Use Of Mesenchymal Stem Cells For The Improvement Of Affective And Cognitive Function” (priority 2011, published 2014)

Columns and labels:
[1] = test system: murine model of schizophrenia (ketamine-injected female ICR pups); assay: Pre-pulse inhibition (PPI) in ketamine-injected pups, murine model of schizophrenia; format: in vivo, mouse; conditions: Example 6, intraperitoneal 12 days course
Method: Prepulse inhibition (PPI) test was conducted in startle device (Hamilton Kinder, Poway, Calif.) that consists of a plexiglas cylinder (10×10×5 cm) adapted for mouse size in order to restrict a mouse to stand up on its hind legs and enclosed in a ventilated sound attenuated compartment with a high-frequency loudspeaker producing all acoustic stimuli. The background noise was 65 dB. Movements within the cylinder were detected and transduced by a piezoelectric platform and recorded on a computer. Each trial was initiated with 5 minutes acclimation period followed by five startle pulse alone (ASR) successive testing trials and finishing with final five startle pulses alone. Auditory testing included startle pulse alone (ASR, 120 dB/40 msec) plus three different prepulse sessions in which either 20-msec-long 70, 74 and 82 dB stimuli were preceded the 120 dB pulse by 100 msec, with the alternate background noise measurement set as the baseline movements in the cylinder. All trials followed in a pseudo-random order and the average inter-trial interval (ITI) was […]. PPI was defined as the percentage of the decreased in the ratio between the startle magnitude in the presence of the prepulse and the magnitude in the absence of the prepulse (100−(100× magnitude on prepulse+pulse trial/magnitude on pulse trial)). […]

[2] = test system: cell suspension of rat neonatal brain tissue; assay: Neurosphere growth in conditioned medium of pre-treated MSC cultures (neurogenic potential in vitro); format: cell-based
Method: 70-80% confluent cultures of bone marrow derived MSCs were cultured in vitro in Dulbecco's modified Eagle's medium (DMEM) without Fetal Bovine Serum (FBS) with and supplemented with the addition of one of the following compounds: None, LiCl (2 mM), PACAP27 (20 nM) or DHEA (1 mM). After 3 days medium was changed with fresh ingredients and cultures were allowed to grow for an additional 24 hours. After 24 hours plates were washed twice with PBS and conditioning medium (C.M.) containing none of the above compounds was placed for additional 24 hours. Conditioned medium harvested from these cultures after 24 hours was filtered in 0.2 um filter supplemented with 1% B27 nutrients mix and used as culture medium for a cell suspension of rat neonatal brain tissue in 24 well plates (10^4 cells/well). […]
The number of developing neurospheres in each conditioned medium type was counted after 5 days of culture and provided an indication of the neurogenic potential of the MSCs culture from which the CM was harvested. […]
The number of developing neurospheres in each conditioned medium type was counted and provided an indication of the neurogenic potential of the MSCs culture from which the C.M. was harvested.

CN1CCN(C2=Nc3cc(Cl)ccc3Nc3ccccc32)CC1 [Clozapine, clozapine]
PPI vs Ket control ([1]; 2.5 months after the treatment course ended, FIG. 17): no significant effect
PPI vs Ket control ([1]; 6 weeks after the course ended, FIG. 16): no significant effect

HSDGIFTDSYSRYRKQMAVKKYLAAVL [PACAP (P27), fragment of 27 amino acid residues corresponding to amino acids 132-158 of human PACAP]
number of developing neurospheres ([2]; C.M. of MSC cultures treated with the agent (PACAP27 20 nM, DHEA 1 mM) vs non-treated cultures (C.M. alone), FIG. 2): clear advantage

[Cl-].[Li+] [LiCl, lithium chloride]
neurogenic activity of the MSCs, in vitro ([2]; incubation of MSCs in culture with the agent): enhanced the neurogenic activity
